The values that follow come from the METLIN SMRT retention time set (Domingo-Almenara et al. 2019).

The nature of the data set: gradient 5% acetonitrile 3 min, to 50% in 2 min, to 85% in 15 min, held 3 min, 100 µL/min. The following applies: column: Zorbax Extend-C18 2.1 x 50 mm; eluents: water / acetonitrile, 0.1% formic acid. A digest of the protocol:
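Using water and acetonitrile that each contained 0.1% formic acid, mixtures of ~100 pure standards were separated at 100 μL/min on a Zorbax Extend-C18 column (2.1 × 50 mm, 1.8 μm). The HPLC fed a quadrupole time-of-flight mass spectrometer working in positive and negative ionization mode, with dead and dwell volumes of 40 μL and 900 μL. Data were acquired over 3 months. Retention time was read from computationally picked adduct peaks after manual inspection of each.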
Regarding `Cc1oc2c(c(C)nn2-c2ccccc2)c(=O)c1Cl`, the RP-LC retention time was 954 s.

`O=c1cccnn1CCCNS(=O)(=O)c1ccc(F)c(C(F)(F)F)c1` gave an RP-LC retention time of 741 s.

The molecule `CC(C)(C)c1ccc(-c2nc(C3CC(=O)N(c4ccc(Cl)cc4)C3)no2)cc1` (centres undefined) gave an RP-LC retention time of 861 s.

Molecule `CCCCN1C(=O)NC(c2ccccc2)C(c2nc(-c3ccccc3)no2)=C1C` (centres undefined) showed an RP-LC retention time of 1130 s.

The molecule `COc1ccccc1NC(=O)Cn1c(-c2nc(C(C)C)no2)cccc1=O` yielded an RP-LC retention time of 927 s.

Molecule `Cc1ccc(C(=O)Nc2cccc(C(F)(F)F)c2)cc1Nc1nc(-c2cccnc2)nc2c1cnn2C` returned an RP-LC retention time of 788 s.

Take `O=C(Nc1cnc(N2CCOCC2)nc1)c1ccccc1Br`: the RP-LC retention time came to 725 s.

The molecule `CCc1cccc(NC(=O)Cn2c(=O)n(-c3ccc(F)cc3)c(=O)c3c2cc(C)n3C)c1` returned an RP-LC retention time of 914 s.

Consider `Fc1ccccc1Cn1cccc1-c1nc(-c2ccc3c(c2)OCO3)no1`, for which the RP-LC retention time came out at 1230 s.

The molecule `CCS(=O)(=O)N1CC(=O)N(c2cccc(C)c2C)C(C)(C(=O)NCc2ccccc2)C1` (centres undefined) showed an RP-LC retention time of 807 s.

Regarding `Cc1cc(OCc2nc(C)c(C(=O)Nc3nc(-c4ccccc4)cs3)s2)ccc1Cl`, the RP-LC retention time was found to be 1330 s.

Regarding `CCOCCCNC(=O)CCc1nnc2c3cc(-c4ccc(C)c(C)c4)nn3ccn12`, the RP-LC retention time amounted to 753 s.

The molecule `CCc1noc(-c2ccnc(-n3ncc(C(=O)NC4CCCCC4)c3C)c2)n1` yielded an RP-LC retention time of 1020 s.

In turn, `COCc1noc(C2CN(CCc3ccccc3)CC23CCCC3)n1` (centres undefined) displayed an RP-LC retention time of 670 s.

The molecule `Cc1cc2nn(CC(=O)N3CCc4ccccc43)c(=O)n2c(Nc2ccc(F)cc2)n1` had an RP-LC retention time of 1030 s.

Turning to `CC(C)c1cc(C2CCCN2C(=O)c2ccsc2)no1` (centres undefined), the RP-LC retention time was 828 s.

As to `O=S(=O)(Cc1ccc(Cl)cc1)N1CCC(n2c(-c3ccco3)nc3cccnc32)C1` (centres undefined), the RP-LC retention time stood at 927 s.

`CC(C)c1ccc(NC(=O)Cn2ncc3c(c2=O)N(CC2CC2)C(=O)CS3)cc1` displayed an RP-LC retention time of 934 s.

Consider `Cc1ccc(C)c(N2CCN(C(=O)c3ccc4c(c3)CCN4C(=O)C3CC3)CC2)c1`, for which the RP-LC retention time amounted to 1070 s.

With `CC(C)NC(=O)c1ccc2c(c1)nc(CN(C)C(=O)Nc1ccc3c(c1)OCO3)n2C`, the RP-LC retention time amounted to 606 s.

Molecule `CCn1cnc2cc(-c3noc(-c4cc(OC)c(OC)c(OC)c4)n3)ccc21` yielded an RP-LC retention time of 732 s.

`CNC(=O)c1ccc(-n2cccc2)nc1` came in with an RP-LC retention time of 645 s.

The molecule `CN1C(=O)C2CCCCN2c2ccc(C(=O)NCCN3CCCCC3)cc21` (centres undefined) yielded an RP-LC retention time of 609 s.

Turning to `O=C(Nc1c(F)cccc1F)N1CCC(c2ccccc2)C1` (centres undefined), the RP-LC retention time was determined as 767 s.

Take `O=C(NCC(c1cccnc1)N1CCc2ccccc2C1)C(=O)NC1CCCCCC1` (centres undefined): the RP-LC retention time worked out at 681 s.

Take `CSc1ncccc1C(=O)Nc1ccc2c(c1)CCC(=O)N2C`: the RP-LC retention time stood at 684 s.

As for `CCNc1cc(N2CCC(CCC(=O)NCCc3cccs3)CC2)ncn1`, the RP-LC retention time came out at 570 s.

`O=C(NCCN1CCN(c2ccc(Cl)cc2)CC1)C1CC1` had an RP-LC retention time of 576 s.

Regarding `CCNC(=O)Nc1ccc(OCC(=O)NC2CCN(Cc3ccccc3)CC2)nc1`, the RP-LC retention time is 584 s.

Molecule `O=C1COc2cc(S(=O)(=O)N3CCCC3C(=O)NCc3ccc4c(c3)OCO4)c(Cl)cc2N1` (centres undefined) returned an RP-LC retention time of 725 s.

For the molecule `Cc1ccc(-c2csc(NC(=O)CCc3nc(CSc4nc5ccccc5o4)no3)n2)cc1`, the RP-LC retention time is 1130 s.

In turn, `CCNC(=O)CCc1nc2ccccc2n(CC(=O)Nc2ccc(OC)c(OC)c2)c1=O` had an RP-LC retention time of 658 s.

`CSc1ccc(-c2noc(Cn3ncn4nc(-c5cc(C)ccc5C)cc4c3=O)n2)cc1` had an RP-LC retention time of 1260 s.

In turn, `O=C1[C@H]2CN(Cc3ccccc3F)C[C@H]2C(=O)N1CCc1ccccc1` registered an RP-LC retention time of 781 s.

`CC(=O)N1CCCc2cc(S(=O)(=O)CCC(=O)Nc3ccc(Br)cc3C)ccc21` had an RP-LC retention time of 829 s.

`O=C(Nc1ccc(S(=O)(=O)Nc2nccs2)cc1)c1ccco1` had an RP-LC retention time of 616 s.

Regarding `COc1ccc(C2Nn3c(C)nnc3SC2C(=O)N2CCCCCC2)cc1Br` (centres undefined), the RP-LC retention time was determined as 794 s.

In the case of `O=C(Cn1nc2n(c1=O)CCCC2)N1CCN(c2ccc(F)cc2)CC1`, the RP-LC retention time was 651 s.

As to `COc1cccc(Sc2ccc(N3CCCC(C(=O)NCc4ccc5c(c4)OCO5)C3)nn2)c1` (centres undefined), the RP-LC retention time turned out to be 826 s.

Molecule `CC1CCN(c2ncc3c(n2)CCN(Cc2ccc(N(C)C)cc2)C3)CC1` registered an RP-LC retention time of 757 s.

As to `COc1nn(C)cc1C(=O)Nc1ccccc1SC`, the RP-LC retention time came out at 776 s.

With `Cn1cc2c3c(cccc31)CN(C(=O)Cc1ccc(Cl)cc1)CC2`, the RP-LC retention time worked out at 986 s.

For `COc1ccc(CC(=O)N2CCCC2c2nc(-c3ccc(OC)c(OC)c3)no2)cc1OC` (centres undefined), the RP-LC retention time stood at 801 s.

`Clc1ccc(C2Cn3nnc(-c4nc(-c5ccncc5)no4)c3CO2)cc1` (centres undefined) had an RP-LC retention time of 1000 s.

`CSc1ccc(C2C(C(=O)N3CCOCC3)=C(C)NC3=C2C(=O)CC(C)(C)C3)cc1` (centres undefined) showed an RP-LC retention time of 696 s.

As to `Cc1nnc2ccc(S(=O)(=O)Nc3ccc(Cl)cc3)cn12`, the RP-LC retention time stood at 711 s.

As for `Cc1ccc(NC(=O)N2CCC(N3CCN(Cc4ccc(F)cc4)C(=O)C3=O)CC2)cc1Cl`, the RP-LC retention time came to 831 s.

As to `CCOc1ccccc1NC(=O)N(C)CCc1noc(COc2ccccc2)n1`, the RP-LC retention time is 977 s.

The molecule `CC(C)c1cc(CNc2nc(Nc3cc(C4CC4)[nH]n3)cc(N3CCN(C)CC3)n2)on1` showed an RP-LC retention time of 647 s.

`O=C1CC(c2noc(CCc3ccccc3)n2)CN1c1ccccc1` (centres undefined): the RP-LC retention time amounted to 956 s.

In the case of `Cc1ccc(S(=O)(=O)Cc2nc(-c3ccc4c(c3)OCO4)no2)cc1`, the RP-LC retention time was determined as 951 s.

In turn, `CCOCCCNC(=O)N1CCN(c2nc3ccccc3n(Cc3ccc(C)cc3)c2=O)CC1` returned an RP-LC retention time of 1010 s.

`O=C(NCc1ccc(C(F)(F)F)cc1)C1CCCN(c2nccnc2Sc2ccccc2)C1` (centres undefined) showed an RP-LC retention time of 1140 s.

Molecule `Cc1nn(C)c(C)c1CCNC(=O)Nc1ccccc1Br` gave an RP-LC retention time of 651 s.

For the molecule `CC(=O)c1ccc(NC(=O)c2cnc(-c3ccccc3)nc2-c2ccncc2)cc1`, the RP-LC retention time came to 795 s.

`CCCCN(C)C(=O)c1cn2cc(C)ccc2n1` came in with an RP-LC retention time of 608 s.

Take `Cc1ccsc1-c1nc(-c2ccc3ncn(C)c3c2)no1`: the RP-LC retention time was found to be 732 s.

Regarding `Cn1cc(-c2nc(C(=O)Nc3ccc(F)cc3Cl)cs2)c2cccnc21`, the RP-LC retention time was found to be 1210 s.

In turn, `CCc1nc2cc(-c3noc(-c4cc(F)ccc4Cl)n3)ccc2o1` displayed an RP-LC retention time of 1270 s.

Molecule `CCC1CN(C(=O)N2CCC(C(=O)NCCCN3CCCCCC3)CC2)c2ccccc2O1` (centres undefined) yielded an RP-LC retention time of 663 s.

With `CCCn1cc(S(=O)(=O)Nc2ccc(C)cc2)c2cccnc21`, the RP-LC retention time was found to be 937 s.

`CCOC(=O)c1nc(Nc2ccc(OCC)cc2)c2ccccc2n1`: the RP-LC retention time worked out at 806 s.

With `CC(C)OC(=O)CCC/C=C\C[C@@H]1[C@@H](/C=C/[C@@H](O)COc2cccc(C(F)(F)F)c2)[C@H](O)C[C@@H]1O`, the RP-LC retention time worked out at 955 s.

Regarding `COc1ccc(NC(=O)c2c(O)c3cccnc3n(-c3ccccc3)c2=O)cc1`, the RP-LC retention time amounted to 1200 s.

Take `Cc1cc(C)c(C)c(S(=O)(=O)N2CCC(F)(c3nc(CC(C)C)no3)CC2)c1C`: the RP-LC retention time was determined as 1410 s.

Molecule `Cc1cc(C)n2c(Nc3c(C)cccc3C)c(-c3ccc(Cl)cc3)nc2n1` registered an RP-LC retention time of 815 s.

The molecule `CC(C)n1cc(S(=O)(=O)Nc2ccc(F)cc2F)c2cccnc21` registered an RP-LC retention time of 890 s.

The molecule `CCn1cc(CCNC(=O)Nc2ccc3c(c2)OCO3)c2cccnc21` came in with an RP-LC retention time of 672 s.

Regarding `O=C(NC1CC1)C1CCN(S(=O)(=O)c2ccc3[nH]c4c(c3c2)CCCCC4)CC1`, the RP-LC retention time came to 862 s.

`CC(C)NCc1ccc(-c2ccccc2)o1` came in with an RP-LC retention time of 612 s.

As to `Cc1cccc(CSc2nnc(CNC(=O)c3ccc(S(=O)(=O)N(C)C)cc3)o2)c1`, the RP-LC retention time was 803 s.

For `CN1CCn2cc(S(=O)(=O)Nc3ccc(F)cc3F)cc2C1=O`, the RP-LC retention time came to 671 s.

Regarding `CCOc1ccc(NC(=O)Cn2nc3cc(-c4ccccc4)nc(C)n3c2=O)cc1`, the RP-LC retention time amounted to 838 s.

As for `O=C(O)c1ccc(Nc2c(-c3ccc(Cl)cc3)nc3cnccn23)cc1`, the RP-LC retention time was found to be 737 s.

In turn, `O=C(Cc1cccs1)N1CCc2c([nH]c3ccccc23)C1c1ccccc1` (centres undefined) registered an RP-LC retention time of 1130 s.

`COc1ccc(NC(=O)N2CCN(c3nc4ccccc4n3C)CC2)c(OC)c1` had an RP-LC retention time of 609 s.

Consider `CCC(C)NC(=O)Cn1c(=O)cc(-c2nc(C)no2)c2ccccc21` (centres undefined), for which the RP-LC retention time came to 755 s.

In turn, `CCN1CCC(N(Cc2ccc3c(c2)OCO3)C(=O)Nc2ccccc2)CC1` came in with an RP-LC retention time of 650 s.

Regarding `Cc1cc(C)c(-c2noc(C)n2)c(NC(=O)c2cccc(Cl)c2)n1`, the RP-LC retention time came out at 827 s.
